This experiment addresses T1, human TLR8 (Homo sapiens, UniProt Q9NR97).
T1 sequence (Q9NR97 27-1041): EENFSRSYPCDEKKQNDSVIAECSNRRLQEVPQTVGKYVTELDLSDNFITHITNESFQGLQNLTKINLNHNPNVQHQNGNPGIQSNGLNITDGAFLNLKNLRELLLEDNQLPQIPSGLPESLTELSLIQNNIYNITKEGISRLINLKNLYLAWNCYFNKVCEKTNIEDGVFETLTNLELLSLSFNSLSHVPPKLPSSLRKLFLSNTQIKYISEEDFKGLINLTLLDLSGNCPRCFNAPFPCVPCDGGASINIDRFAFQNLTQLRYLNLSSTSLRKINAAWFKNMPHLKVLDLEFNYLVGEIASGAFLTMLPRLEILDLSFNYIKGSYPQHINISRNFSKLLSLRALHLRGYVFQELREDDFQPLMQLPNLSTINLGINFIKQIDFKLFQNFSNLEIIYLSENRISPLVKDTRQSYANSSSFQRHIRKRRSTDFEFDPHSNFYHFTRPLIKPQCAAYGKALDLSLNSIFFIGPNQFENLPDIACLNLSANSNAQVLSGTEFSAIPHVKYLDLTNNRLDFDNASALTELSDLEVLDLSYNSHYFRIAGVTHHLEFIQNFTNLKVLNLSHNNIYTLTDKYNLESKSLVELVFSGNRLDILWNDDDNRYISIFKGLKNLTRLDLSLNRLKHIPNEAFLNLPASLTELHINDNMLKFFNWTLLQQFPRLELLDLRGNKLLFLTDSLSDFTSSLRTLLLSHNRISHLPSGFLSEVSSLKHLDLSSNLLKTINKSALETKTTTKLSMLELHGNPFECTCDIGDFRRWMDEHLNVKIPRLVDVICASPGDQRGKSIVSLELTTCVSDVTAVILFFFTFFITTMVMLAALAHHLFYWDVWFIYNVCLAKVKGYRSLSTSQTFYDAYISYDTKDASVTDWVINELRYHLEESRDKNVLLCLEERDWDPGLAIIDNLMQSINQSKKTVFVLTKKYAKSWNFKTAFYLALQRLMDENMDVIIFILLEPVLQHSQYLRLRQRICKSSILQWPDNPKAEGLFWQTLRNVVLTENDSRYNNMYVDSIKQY
The experiment in a line: HEK293-Blue-hTLR-8 cells assay (SEAP reporter, R848 stimulation). Conditions: HEK293-Blue-hTLR8 cells, R848, 20 hrs; 0.003 is the lowest tested concentration; read-out: HEK/hTLR8 IC50. In kind it is cell-based. In short, it runs like this: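 Antagonist mode: HEK293-Blue-hTLR8 cells at 250,000–450,000 cells/mL in DMEM with 10% FBS were treated with serially diluted compound (1% DMSO final) plus R848 (10 µL of 60 µM stock) for 20 h at 37 °C. NF-κB/AP-1-driven SEAP in supernatant measured with QUANTI-Blue, 2 h at 37 °C, absorbance 620–655 nm.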
On to `C[C@@H]1CN(c2ccc(C#N)c3ncccc23)C[C@H](CN2Cc3ccc(N4CCNC[C@@H]4CO)cc3C2)O1` [Example 82, 5-[(2S,6R)-2-[[5-[(2R)-2-(hydroxymethyl)piperazin-1-yl]isoindolin-2-yl]methyl]-6-methyl-morpholin-4-yl]quinoline-8-carbonitrile], for which the IC50 was found to be 14 nM.
Then `C[C@@H]1CN(c2ccc(C#N)c3ncccc23)C[C@H](CN2Cc3ccc(N4CCNC[C@H]4CO)cc3C2)O1` [Example 83, 5-[(2S,6R)-2-[[5-[(2S)-2-(hydroxymethyl)piperazin-1-yl]isoindolin-2-yl]methyl]-6-methyl-morpholin-4-yl]quinoline-8-carbonitrile], with 20 nM.
Then `C[C@@H]1CN(c2ccc(C#N)c3nccnc23)C[C@H](CNCc2ccc(N3CCNCC3)cc2)O1` [Example 84, 8-[(2R,6S)-2-methyl-6-[[(4-piperazin-1-ylphenyl)methylamino]methyl]morpholin-4-yl]quinoxaline-5-carbonitrile], with 22 nM.
Then `C[C@@H]1CN(c2ccc(C#N)c3ncccc23)C[C@H](CNCc2ccc(N3CCNCC3)cc2)O1` [Example 86, 5-[(2R,6S)-2-methyl-6-[[(4-piperazin-1-ylphenyl)methylamino]methyl]morpholin-4-yl] quinoline-8-carbonitrile], with 26 nM; and `C[C@@H]1CN(c2ccc(C#N)n3nccc23)C[C@H](CN2CCc3cnccc3C2)O1` [Example R1, 4-[(2S,6R)-2-(3,4-dihydro-1H-2,6-naphthyridin-2-ylmethyl)-6-methyl-morpholin-4-yl]pyrazolo[1,5-a]pyridine-7-carbonitrile, reference compound], with 118 nM; and `C[C@@H]1CN(c2ccc(C#N)n3nccc23)C[C@H](CN2Cc3ccncc3C2)O1` [Example R2, 4-[(2S,6R)-2-(1,3-dihydropyrrolo[3,4-c]pyridin-2-ylmethy1)-6-methyl-morpholin-4-yl]pyrazolo[1,5-a]pyridine-7-carbonitrile, reference compound], with 784 nM.
For the molecule `C[C@@H]1CN(c2ccc(C#N)c3ncccc23)C[C@H](CN2Cc3ccccc3C2)O1` [Example R3, 5-[(2S,6R)-2-(isoindolin-2-ylmethyl)-6-methyl-morpholin-4-yl]quinoline-8-carbonitrile, reference compound], the IC50 was found to be 146 nM.
